A short description of the assay: Immunosuppressive activity in C57BL/6 mouse lymph node cells after 24 hrs by MTT assay. It is filed as functional. As to conditions: C57BL/6, 24 h. Background: Tetrazolium dyes change colour on reduction, which living cells bring about.

Numbered stars: 1 amine (or outer) side, 2 acyl side, 3 side chain; on linkers, the order of the positions; unused ones are H or OH. Square brackets hold non-standard residues; d marks the D form. Peptide text beside a SMILES is read from it. β3hPhg = O=C(C[C@@H](N[*:1])c1ccccc1)[*:2]; ΔPro = O=C(O)[C@@H]1C=CCN1; Abu = CC[C@H](N)C(=O)O

`CCCCCCC[C@@H]1NC(=O)[C@H](CC)NC(=O)C[C@H](c2ccccc2)NC(=O)[C@H](CO)NC(=O)[C@H](CC)NC1=O` had an IC50 of 65.2 µM.
For `CC[C@@H]1NC(=O)C[C@H](c2ccccc2)NC(=O)[C@H](CC)NC(=O)C[C@H](c2ccccc2)NC(=O)[C@H](CO)NC1=O`, 61.8 µM corresponded to half-maximal inhibition (IC50).
With `CC[C@@H]1NC(=O)C[C@H](c2ccccc2)NC(=O)[C@H](CO)NC(=O)[C@H](CC)NC1=O`, the IC50 is greater than 100 µM.
In turn, `CC[C@@H]1NC(=O)C[C@H](c2ccccc2)NC(=O)[C@H](CO)NC(=O)[C@H](CC)NC(=O)[C@H]([C@H](C)OC(=O)c2ccc[nH]2)NC1=O` showed an IC50 greater than 100 µM.
In turn, `CC[C@@H]1NC(=O)[C@@H]2[C@@H](O)[C@@H](O)CN2C(=O)[C@H](CC)NC(=O)C[C@H](c2ccccc2)NC(=O)[C@H](CO)NC1=O` gave an IC50 greater than 100 µM.
The compound `CC[C@@H]1NC(=O)C[C@H](c2ccccc2)NC(=O)[C@H](CO)NC(=O)[C@H](CC)NC(=O)[C@@H]([C@@H](C)O)NC1=O` had an IC50 of 38.4 µM.
Consider `CC[C@@H]1NC(=O)[C@@H]2[C@H](Cl)[C@H](Cl)CN2C(=O)[C@H](CC)NC(=O)C[C@H](c2ccccc2)NC(=O)[C@H](CO)NC1=O`, for which the IC50 was 12.6 µM.
`CC[C@@H]1NC(=O)C[C@H](c2ccccc2)NC(=O)[C@H](CO)NC(=O)[C@H](CC)NC(=O)[C@@H]([C@H](C)O)NC1=O`: the IC50 was 51.8 µM.
In turn, `CC[C@@H]1NC(=O)C[C@H](c2ccccc2)NC(=O)[C@H](CO)NC(=O)[C@H](CC)NC(=O)[C@H]([C@@H](C)O)NC1=O` returned an IC50 greater than 100 µM.
`CC[C@@H]1NC(=O)C[C@H](c2ccccc2)NC(=O)[C@H](CO)NC(=O)[C@H](CC)NC(=O)[C@H]([C@H](C)O)NC1=O` returned an IC50 greater than 100 µM.
Compound `CC[C@@H]1NC(=O)C[C@H](c2ccccc2)NC(=O)[C@H](CO)NC(=O)[C@H](CC)NC(=O)[C@H](C)NC1=O` (cyclo(A[Abu]S[β3hPhg][Abu])) gave an IC50 greater than 100 µM.
With `CC[C@@H]1NC(=O)C[C@H](c2ccccc2)NC(=O)[C@H](CO)NC(=O)[C@H](CC)NC(=O)[C@H](Cc2c[nH]cn2)NC1=O` (cyclo([Abu]H[Abu]S[β3hPhg])), the IC50 is greater than 100 µM.
Turning to `CC[C@@H]1NC(=O)C[C@H](c2ccccc2)NC(=O)[C@H](CO)NC(=O)[C@H](CC)NC(=O)[C@H](CCCCN)NC1=O` (cyclo([Abu]K[Abu]S[β3hPhg])), the IC50 was greater than 100 µM.
`CC[C@@H]1NC(=O)C[C@H](c2ccccc2)NC(=O)[C@H](CO)NC(=O)[C@H](CC)NC(=O)[C@H](CC(C)C)NC1=O` (cyclo([Abu]L[Abu]S[β3hPhg])) came in with an IC50 greater than 100 µM.
Compound `CC[C@@H]1NC(=O)C[C@H](c2ccccc2)NC(=O)[C@H](CO)NC(=O)[C@H](CC)NC(=O)[C@H](CCCNC(=N)N)NC1=O` (cyclo([Abu]R[Abu]S[β3hPhg])) yielded an IC50 greater than 100 µM.
With `CC[C@@H]1NC(=O)C[C@H](c2ccccc2)NC(=O)[C@H](CO)NC(=O)[C@H](CC)NC(=O)[C@H](C(C)C)NC1=O` (cyclo([Abu]S[β3hPhg][Abu]V)) the figure was greater than 100 µM; with `CC[C@@H]1NC(=O)C[C@H](c2ccccc2)NC(=O)[C@H](CO)NC(=O)[C@H](CC)NC(=O)[C@H](Cc2ccc(O)cc2)NC1=O` (cyclo([Abu]S[β3hPhg][Abu]Y)), greater than 100 µM.
As for `CC[C@@H]1NC(=O)[C@@H]2C=CCN2C(=O)[C@H](CC)NC(=O)C[C@H](c2ccccc2)NC(=O)[C@H](CO)NC1=O` (cyclo([Abu]S[β3hPhg][Abu][ΔPro])), the figure is greater than 100 µM.

In general, IC50 refers to the point on the concentration scale where inhibition reaches its midpoint. A high value points to a need for much substance.
